Experimental data as given in patent US20220202792A1, “METHODS AND COMPOSITIONS FOR TREATING CHRONIC INFLAMMATORY INJURY, METAPLASIA, DYSPLASIA AND CANCERS OF EPITHELIAL TISSUES” (University of Houston System, priority 2019, published 2022).
“Also recorded” adds a separate entry of the source.

Experiments:
[1] = system: esophageal squamous stem cells (ESO stem cells, Krt5+); test: High throughput chemical screening and dose response on GFP-labeled stem cells; assay type: cell-based, human; conditions: for effect on Esophageal stem cells: in the presence of 1 μM Ponatinib
human GSK3α = human GSK3α (Homo sapiens, UniProt P49840); conditions: cited from earlier work
human GSK3α, sequence (P49840 whole entry): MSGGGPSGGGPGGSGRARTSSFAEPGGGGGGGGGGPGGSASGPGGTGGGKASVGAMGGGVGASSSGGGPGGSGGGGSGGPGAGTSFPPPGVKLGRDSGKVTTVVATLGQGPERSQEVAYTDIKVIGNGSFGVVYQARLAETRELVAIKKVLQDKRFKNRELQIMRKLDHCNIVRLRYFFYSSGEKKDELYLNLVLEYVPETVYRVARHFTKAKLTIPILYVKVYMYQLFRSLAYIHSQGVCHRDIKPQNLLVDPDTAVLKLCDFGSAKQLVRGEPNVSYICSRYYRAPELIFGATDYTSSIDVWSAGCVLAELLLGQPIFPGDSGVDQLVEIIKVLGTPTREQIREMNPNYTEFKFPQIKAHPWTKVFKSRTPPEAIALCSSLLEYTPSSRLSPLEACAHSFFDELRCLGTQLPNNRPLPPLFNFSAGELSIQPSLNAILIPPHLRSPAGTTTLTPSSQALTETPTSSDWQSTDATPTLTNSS

[2] = system: Barrett's stem cells (BE stem cells, Krt7+); test: High throughput chemical screening and dose response on GFP-labeled stem cells; assay type: cell-based, human; conditions: for lethality towards Barrett's stem cells: screened in the background of 1 μM Ponatinib
[3] = system: chymotrypsin-like activity of proteasome; conditions: cited from earlier work
[4] = system: dysplasia and cancer stem cells; test: Mice xenografted with dysplasia and cancer stem cells; assay type: in vivo; conditions: with Ponatinib
Text: FIG. 5C. Schematic of in vivo validation of drug combinations in mice xenografted with dysplasia and cancer stem cells. Following the treatment, the xenografts were processed for histological analysis or clonogenic assays to detect the existence of stem cells.

[5] = system: chymotrypsin-like activity of the proteasome; conditions: cellular; cited from earlier work
[6] = system: Barrett's stem cells and Esophageal stem cells; test: Co-culture of Barrett's stem cell lines and Esophageal stem cells; assay type: cell-based, human; conditions: in the presence of Ponatinib
[7] = system: Barrett's stem cells and esophageal squamous stem cells xenograft; test: Mouse xenograft of co-injected esophageal squamous and GFP labeled Barrett's stem cells; assay type: in vivo, mice
Text: The effect of these chemicals on BE in a xenograft model was further examined. The esophageal squamous stem cells and GFP labeled Barrett's stem cells were mixed and co-injected into the immunodeficient mice. […] Two weeks following the treatment, the xenografts were collected and examined through histology analysis and clonogenic analysis.

[8] = system: Barrett's stem cells (GFP) and esophageal squamous stem cells (RFP); test: 3D air-liquid interface (ALI) co-culture of Barrett's and esophageal stem cells; assay type: cell-based, human; conditions: in the presence of Ponatinib
Protocol: A 3D culture model was generated to mimic Barrett's Esophagus in vitro. The esophageal squamous stem cells and Barrett's stem cells were co-cultured in the transwell insert. Following the creation of air-liquid interface, it was observed that the BE islands located among well-differentiated squamous epithelium that well recapitulated the histology of human BE in the patient. Given the similarity of this artificial model and human pathology, the hits were tested in this system to further validate them. […] The esophageal squamous stem cells were labeled with red fluorescent protein (RFP) while Barrett's stem cells were labeled with green fluorescent protein (GFP). Without the treatment, it was observed that a mixture of GFP and RFP labeled cells in culture.

[9] = system: tryptic and peptidylglutamyl activities of the proteosome; conditions: cited from earlier work
[10] = system: Barrett's, dysplasia or EAC stem cells; test: Co-culture of esophageal stem cells with Barrett's, dysplasia or EAC stem cells; assay type: cell-based, human; conditions: together with 1 μM Ponatinib
Protocol: FIG. 6. Patient-matched BE, dysplasia and cancer stem cells (Krt7+, Green) were mixed with Krt5+ (red) ESO cells and co-cultured for five days and then treated with seven selected drugs together with 1 μM Ponatinib.
BE has been known to be the precursor of the dysplastic and cancerous lesions of EAC. […] Moreover, PCA analysis of Barrett's stem cells derived from 12 patients together with dysplasia, cancer and Esophageal squamous stem cells confirmed that the stem cells of dysplasia and cancer shared very similar gene expression with Barrett's stem cells (FIGS. 4A & B). […] The effects of the eight drug hits in combination with Ponatinib were tested in the cell culture of co-seeding esophageal stem cells and Barrett's, dysplasia or EAC stem cells. […] Given these three entities always co-exist in patients with EAC, our strategies of eradicating all of them could help to eliminate the chance of recurrence of EAC patients drastically.

[11] = system: BE, dysplasia and cancer stem cells; test: 3D (ALI) culture of patient-matched BE, dysplasia and cancer stem cells; assay type: cell-based, human; conditions: combined with Ponatinib
Text: FIG. 5B. Left, Scanned images of top view of BE, dysplasia and cancer stem cells (green) generated ALI structures in the presence of absence of drug combinations.

3T3-J2 feeder cells = test: Lethality of feeder cells during treatment; assay type: cell-based; conditions: combination with Ponatinib
Protocol: It was next hypothesized that one chemical in our libraries could function with Ponatinib in a synergistic manner to specifically eradicate Barrett's stem cells while protecting and promoting esophageal stem cells. The same libraries were screened in the background of 1 μM Ponatinib. […] Among them, Adefovir Dipivoxil is a FDA approved drug, CEP-18770 and Qizartinib are in clinical trials. […] Their differential effects on Barrett's stem cells and Esophageal stem cells were validated in a dosage dependent manner (FIG. 2C; FIG. 3F).
The GFP-tagged cell lines will be seeded on multiple 384 well plates (Griener Bio-One, USA) (varying according to number of compounds in a library) with a feeder layer of irradiated 3T3-J2 fibroblast cells. The stem cell will be allowed to grow until they divide to become 4-5 cells within a colony. Afterwards they will be transported for treatment with selected chemical library (1 μM) to High Throughput Research and Screening Center at Institute of Biosciences and Technology (Houston, Tex.), Texas A&M University. Positive and negative control lanes will be allocated within each plate. […] The cells will be allowed to grow for 6 days at 37° C., 7.5% CO2 incubator after treatment. After the cells in the control lanes are at good confluency, the cells will be prepared for imaging. […]

STAT1 = target: T1, STAT1 (Homo sapiens, UniProt P42224); conditions: cited from earlier work
T1 sequence (P42224 1-750): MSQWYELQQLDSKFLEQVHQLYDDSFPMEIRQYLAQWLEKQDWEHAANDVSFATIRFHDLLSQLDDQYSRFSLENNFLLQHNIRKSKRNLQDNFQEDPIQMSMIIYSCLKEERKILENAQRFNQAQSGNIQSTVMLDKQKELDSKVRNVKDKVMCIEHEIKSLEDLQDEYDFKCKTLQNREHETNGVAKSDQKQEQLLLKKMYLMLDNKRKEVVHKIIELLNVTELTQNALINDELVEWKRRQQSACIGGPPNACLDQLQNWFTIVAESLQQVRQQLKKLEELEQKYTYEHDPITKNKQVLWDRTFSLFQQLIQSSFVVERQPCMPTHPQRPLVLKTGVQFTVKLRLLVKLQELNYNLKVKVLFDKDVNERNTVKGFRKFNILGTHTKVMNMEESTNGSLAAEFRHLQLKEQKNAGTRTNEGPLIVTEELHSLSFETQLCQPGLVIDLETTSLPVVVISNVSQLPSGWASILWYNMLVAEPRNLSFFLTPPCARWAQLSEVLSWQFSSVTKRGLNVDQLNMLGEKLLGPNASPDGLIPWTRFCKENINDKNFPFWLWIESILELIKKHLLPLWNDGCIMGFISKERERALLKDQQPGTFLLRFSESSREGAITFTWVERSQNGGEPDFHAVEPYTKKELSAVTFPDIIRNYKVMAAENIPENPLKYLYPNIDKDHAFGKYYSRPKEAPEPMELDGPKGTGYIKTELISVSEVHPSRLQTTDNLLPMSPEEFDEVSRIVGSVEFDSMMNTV

[12] = target: ERBB2 phosphorylation (T798I) (Homo sapiens, UniProt P04626, T798I); conditions: cited from earlier work
ERBB2 phosphorylation (T798I), sequence (P04626 23-1255 T798I): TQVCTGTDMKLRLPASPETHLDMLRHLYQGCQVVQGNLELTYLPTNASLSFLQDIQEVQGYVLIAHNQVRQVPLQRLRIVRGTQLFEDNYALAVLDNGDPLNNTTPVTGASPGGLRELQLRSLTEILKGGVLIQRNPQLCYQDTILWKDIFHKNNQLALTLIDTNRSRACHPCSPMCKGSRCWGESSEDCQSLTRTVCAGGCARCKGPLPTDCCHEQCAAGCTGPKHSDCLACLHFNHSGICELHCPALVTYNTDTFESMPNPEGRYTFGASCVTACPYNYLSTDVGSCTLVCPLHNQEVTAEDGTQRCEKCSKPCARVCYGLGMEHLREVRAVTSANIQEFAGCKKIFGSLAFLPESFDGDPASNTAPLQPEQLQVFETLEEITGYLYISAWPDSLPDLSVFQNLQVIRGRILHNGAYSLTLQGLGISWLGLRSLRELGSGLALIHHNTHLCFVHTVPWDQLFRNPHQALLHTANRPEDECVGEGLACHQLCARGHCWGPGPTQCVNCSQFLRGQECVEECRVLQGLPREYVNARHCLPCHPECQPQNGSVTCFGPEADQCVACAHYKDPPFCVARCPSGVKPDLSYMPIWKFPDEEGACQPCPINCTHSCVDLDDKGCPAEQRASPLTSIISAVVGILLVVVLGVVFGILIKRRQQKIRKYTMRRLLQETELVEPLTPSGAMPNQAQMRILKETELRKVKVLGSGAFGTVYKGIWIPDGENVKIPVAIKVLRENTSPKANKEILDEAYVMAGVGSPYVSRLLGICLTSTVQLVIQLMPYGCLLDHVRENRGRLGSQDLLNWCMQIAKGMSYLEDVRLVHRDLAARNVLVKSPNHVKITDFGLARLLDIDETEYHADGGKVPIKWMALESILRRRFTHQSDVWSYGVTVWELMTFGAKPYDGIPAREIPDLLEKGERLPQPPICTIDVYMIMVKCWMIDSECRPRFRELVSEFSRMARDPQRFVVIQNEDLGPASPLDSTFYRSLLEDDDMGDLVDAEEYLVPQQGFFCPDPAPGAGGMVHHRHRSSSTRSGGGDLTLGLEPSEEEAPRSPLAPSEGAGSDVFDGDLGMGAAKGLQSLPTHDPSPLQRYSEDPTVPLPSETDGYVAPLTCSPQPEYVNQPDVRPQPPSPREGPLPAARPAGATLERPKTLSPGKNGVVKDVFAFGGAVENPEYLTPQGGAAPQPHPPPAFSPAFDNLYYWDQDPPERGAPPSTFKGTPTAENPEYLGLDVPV

[13] = system: taxol-resistant ovarian stem cells; test: Killing of taxol-resistant ovarian stem cells in vitro; assay type: cell-based; conditions: combination with ponatinib
[14] = system: taxol-resistant ovarian stem cells; test: Taxol-resistant ovarian stem cell xenograft animal models; assay type: in vivo; conditions: combination with ponatinib

With N#Cc1ccc2[nH]c(O)c(-c3ccc(CN4CCOCC4)cn3)c2c1 [AZD1080] as the compound, how does the “effect on Esophageal stem cells” value [1] read?
Its value is “without affecting”.

And the Ki (human GSK3α)?
The Ki was 6.9 nM.

What about the “lethality towards Barrett's stem cells” value [2] of the same compound?
The value was “displayed the lethality”.

And the “differential effects on BE and ESO stem cells, validation over a range of dosages” value ([2]; together with 1 μM Ponatinib)?
The value was “appeared to be the false positive hit in the screening”.

What does the source list for CC(C)(C)C(=O)OCOP(=O)(COCCn1cnc2c(N)ncnc21)OCOC(=O)C(C)(C)C [Adefovir Dipivoxil]?
effect on Esophageal stem cells [1]: without affecting; lethality towards Barrett's stem cells [2]: displayed the lethality

With CC(C)C[C@H](NC(=O)[C@@H](NC(=O)c1cccc(-c2ccccc2)n1)[C@@H](C)O)B(O)O [CEP-18770, [(1R)-1-[[(2S,3R)-3-hydroxy-2-[(6-phenylpyridine-2-carbonyl)amino]butanoyl]amino]-3-methylbutyl]boronic acid] as the compound, how does the IC50 [3] read?
Its IC50 is 3.8 nM.

What about the “effect on Esophageal stem cells” value [1] of the same compound?
Its value is “without affecting”.

And the “Dysplastic structures (Krt7+/Ki67+) in xenografts” value [4]?
Its value is “diminished”.

What about the “eradication of precancerous, dysplastic and cancerous stem cells in mouse xenograft models” value [4] of the same compound?
The value was “eradicate”.

And the “stem cells cloned from treated dysplastic structures (rhodamine staining)” value [4]?
The value was “not cloned”.

What about the IC50 [5] of the same compound?
Its IC50 is 3.8 nM.

What about the “effect on Esophageal squamous stem cells in co-culture” value [6] of the same compound?
The value was “promoting”.

What about the “lethality to Barrett's stem cells in co-culture” value ([6]; nine Barrett's stem cell lines) of the same compound?
Its value is “uniform lethality to all Barrett's stem cells”.

And the “BE stem cells in treated structures (histological analysis)” value ([7]; NSG mice, with Ponatinib)?
The value was “not detected”.

And the “Krt5+ ESO structures in treated samples” value ([7]; NSG mice, with Ponatinib)?
The value was “visibly more robust”.

What about the “clonogenic Barrett's stem cells from xenografts” value ([7]; combination with Ponatinib, clonogenic analysis) of the same compound?
The value was “lack of clonogenic Barrett's stem cells”.

And the “Barrett's structures in xenografts (histology)” value ([7]; combination with Ponatinib, intraperitoneally, two weeks following the treatment)?
Its value is “total loss”.

And the “cross sections of the ALI structures” value [8]?
The value was “intact esophageal squamous epithelium without any existence of Barrett's epithelium”.

And the “GFP labeled Barrett's stem cells in 3D ALI co-culture” value ([8]; eight Barrett's stem cell lines)?
The value was “disappearance”.

And the “inhibition of the tryptic and peptidylglutamyl activities of the proteosome” value [9]?
Its value is “only marginal inhibition”.

And the “differential of dose-response curves, BE stem cells versus normal esophageal stem cells” value ([2]; in the background of a fixed concentration of Ponatinib)?
Its value is ~1,000 fold.

What about the “lethality towards Barrett's stem cells” value [2] of the same compound?
Its value is “displayed the lethality”.

And the “growth of BE, dysplasia and cancer stem cells in co-culture with ESO cells” value [10]?
The value was “most effective”.

What about the “eradication of BE, dysplasia and cancer stem cells in 3D (ALI) culture” value [11] of the same compound?
Its value is “eradicate”.

For CO[C@H]1CC[C@@H](O[C@H]2C[C@H]([C@]3(C)CC[C@]4(C[C@H](O)[C@@H](C)[C@@H]([C@@H](C)/C=C(\C)C(=O)[C@H](C)C[C@H](C)C(=O)O)O4)O3)O[C@]3(O[C@@H]([C@H]4O[C@@](O)(CO)[C@H](C)C[C@@H]4C)C[C@@H]3C)[C@@H]2C)O[C@H]1C [Nanchangmycin], which “effect on Esophageal stem cells” value [1] is on record?
The value was “without affecting”.

What about the “lethality towards Barrett's stem cells” value [2] of the same compound?
Its value is “displayed the lethality”.

What about the “lethality of 3T3-J2 feeder cells during the treatment” value (3T3-J2 feeder cells) of the same compound?
Its value is “high lethality”.

Which results are given for Cc1ccc(C(=O)Nc2ccc(CN3CCN(C)CC3)c(C(F)(F)F)c2)cc1C#Cc1cnc2cccnn12 [Ponatinib]?
proliferation of esophageal stem cells ([1]; single agent screening): promoted the proliferation; also recorded: significantly increase the proliferation; survival of Barrett's stem cells ([2]; single agent screening): slightly decreasing the survival

With CC(C)(C)c1cc(NC(=O)Nc2ccc(-c3cn4c(n3)sc3cc(OCCN5CCOCC5)ccc34)cc2)no1 [Quizartinib] as the compound, how does the “effect on Esophageal stem cells” value [1] read?
Its value is “without affecting”.

What about the “lethality towards Barrett's stem cells” value [2] of the same compound?
Its value is “displayed the lethality”.

For O=[N+]([O-])c1ccc2c(c1)S(=O)(=O)C=C2 [Stattic], which “effect on Esophageal stem cells” value [1] is on record?
The value was “without affecting”.

What about the “selectivity over STAT1” value (STAT1) of the same compound?
Its value is “highly selectivity”.

What about the “lethality towards Barrett's stem cells” value [2] of the same compound?
Its value is “displayed the lethality”.

What does the source list for C=CC(=O)Nc1cccc(Sc2nc(Nc3ccc(N4CCN(C)CC4)cc3)ncc2Cl)c1 [WZ8040]?
effect on Esophageal stem cells [1]: without affecting; lethality towards Barrett's stem cells [2]: displayed the lethality; inhibition of ERBB2 phosphorylation (T798I) [12]: does not inhibit

For CC(=O)O[C@H]1C(=O)[C@@]2(C)[C@H]([C@H](OC(=O)c3ccccc3)[C@]3(O)C[C@H](OC(=O)[C@H](O)[C@@H](NC(=O)c4ccccc4)c4ccccc4)C(C)=C1C3(C)C)[C@]1(OC(C)=O)CO[C@@H]1C[C@@H]2O [taxol], which “killing taxol-resistant ovarian stem cells” value [13] is on record?
The value was “synergy”.

What about the tumor volume [14] of the same compound?
Its tumor volume is “reducing tumor volume”.
